Values joined by “and” are separate entries in the source; they are usually repeats but may differ in a detail not shown here. Equal values may be shown once. Read-outs that look alike come from different tables or passages of the source.
Legend:
[1] = in vitro; conditions: African green monkey, % cell viability, 72 h
[2] = test system: “DF2” primary HAE cells (diseased, asthma); conditions: 72 h
[3] = GS-441524 and metabolite concentrations in ferret lung tissue; conditions: single 30 mg/kg oral GS-621763, 24 h
[4] = test system: SARS-CoV-2 VOC γ (BZ/2021); type: in vivo, ferret (Mustela putorius furo)
[5] = test system: BHK-21 cells; test: Cytotoxicity assay (PrestoBlue), BHK-21; conditions: 72 h
[6] = in vitro; conditions: human, CC50, “M2” HAE
[7] = test system: SARS-CoV-2 WA1/2020; type: in vivo, ferret (Mustela putorius furo); conditions: Fig 3b, b.i.d.
[8] = Fig 4b, […], 10 mg/kg b.i.d., Time 0.0
[9] = Fig 4b, […], 10 mg/kg b.i.d., Time 0.5
[10] = Fig 4b, […], 10 mg/kg b.i.d., Time 1.0
[11] = Fig 4b, […], 10 mg/kg b.i.d., Time 1.5
[12] = Fig 4b, […], 10 mg/kg b.i.d., Time 2.0
[13] = Fig 4b, […], 10 mg/kg b.i.d., Time 2.5
[14] = Fig 4b, […], 10 mg/kg b.i.d., Time 3.0
[15] = Fig 4b, […], 10 mg/kg b.i.d., Time 3.5
[16] = Fig 4b, […], 10 mg/kg b.i.d., Time 4.0
[17] = Fig 4b, […], 10 mg/kg b.i.d., all 9 time points
[18] = headed Fig 3c, […], 10 mg/kg b.i.d., Time 0
[19] = headed Fig 3c, […], 10 mg/kg b.i.d., Time 1
[20] = headed Fig 3c, […], 10 mg/kg b.i.d., Time 2
[21] = headed Fig 3c, […], 10 mg/kg b.i.d., Time 3
[22] = headed Fig 3c, […], 10 mg/kg b.i.d., Time 4
[23] = headed Fig 3c, […], 10 mg/kg b.i.d., all 5 time points

## CC(C)C(=O)OCC1OC(C#N)(c2ccc3c(N)ncnn23)C(OC(=O)C(C)C)C1OC(=O)C(C)C (centres unmarked) [GS-621763]
[1]; VeroE6, 1.235 µM
  viability at 72 h, 1.235 µM: 87%
[1]; VeroE6, 3.704 µM
  viability at 72 h, 3.704 µM: 87%
[1]; VeroE6, 33.333 µM
  viability at 72 h, 33.333 µM: 101%
[2]; DF2 HAE, 1.235 µM
  % cell viability: 106%
[2]; DF2 HAE, 3.704 µM
  % cell viability: 113%
[2]; DF2 HAE, 33.333 µM
  % cell viability: 114%
[2]; human, 100 µM
  % cell viability: 5%
[3]
  GS-443902 levels in respiratory tissues trailing those of intravenous 10 mg/kg remdesivir: approximately fourfold
[4]; [8]
  Nasal lavage titer, Mean Diff. Vehicle - GS-621763: 0
  Nasal lavage titer, group mean (Mean 2; Transform of Brazil - Nasal Lavage Titer): 0.699
[4]; [9]
  Nasal lavage titer, Mean Diff. Vehicle - GS-621763: 0
  Nasal lavage titer, group mean (Mean 2; Transform of Brazil - Nasal Lavage Titer): 0.699
[4]; [10]
  Nasal lavage titer, Mean Diff. Vehicle - GS-621763: 0
  Nasal lavage titer, group mean (Mean 2; Transform of Brazil - Nasal Lavage Titer): 0.699
[4]; [11]
  Nasal lavage titer, Mean Diff. Vehicle - GS-621763: 0.7768
  Nasal lavage titer, group mean (Mean 2; Transform of Brazil - Nasal Lavage Titer): 0.699
[4]; [12]
  Nasal lavage titer, Mean Diff. Vehicle - GS-621763: 1.969
  Nasal lavage titer, group mean (Mean 2; Transform of Brazil - Nasal Lavage Titer): 0.8495
[4]; [13]
  Nasal lavage titer, Mean Diff. Vehicle - GS-621763: 2.801
  Nasal lavage titer, group mean (Mean 2; Transform of Brazil - Nasal Lavage Titer): 0.7742
[4]; [14]
  Nasal lavage titer, Mean Diff. Vehicle - GS-621763: 2.882
  Nasal lavage titer, group mean (Mean 2; Transform of Brazil - Nasal Lavage Titer): 0.7742
[4]; [15]
  Nasal lavage titer, Mean Diff. Vehicle - GS-621763: 2.92
  Nasal lavage titer, group mean (Mean 2; Transform of Brazil - Nasal Lavage Titer): 0.699
[4]; [16]
  Nasal lavage titer, Mean Diff. Vehicle - GS-621763: 2.821
  Nasal lavage titer, group mean (Mean 2; Transform of Brazil - Nasal Lavage Titer): 0.699
[4]; [17]
  Nasal lavage titer, column mean of GS-621763 over all times: 0.7324
  Nasal lavage titer, difference between column means (Vehicle - GS-621763): 1.574
[4]; Fig 4e, […], 10 mg/kg b.i.d.
  Nasal turbinate RNA, Mean Diff. Vehicle vs. GS-621763: 3.96
  Nasal turbinate RNA, group mean of GS-621763-treated source animals (Transform of Brazil - Nasal Turbinate RNA): 5.208
[4]; Fig 4d, […], 10 mg/kg b.i.d.
  Turbinate titers, Mean Diff. Vehicle vs. GS-621763: 3.511
  Turbinate titers, group mean of GS-621763-treated source animals (Transform of Brazil - Turbinate Titers): 0.9542
[4]; [18]
  Nasal lavage RNA, Mean Diff. Vehicle - GS-621763: 0
  Nasal lavage RNA, group mean (Mean 2; Transform of Brazil - Nasal Lavage RNA): 0
[4]; [19]
  Nasal lavage RNA, Mean Diff. Vehicle - GS-621763: 0.6874
  Nasal lavage RNA, group mean (Mean 2; Transform of Brazil - Nasal Lavage RNA): 2.265
[4]; [20]
  Nasal lavage RNA, Mean Diff. Vehicle - GS-621763: 3.062
  Nasal lavage RNA, group mean (Mean 2; Transform of Brazil - Nasal Lavage RNA): 2.426
[4]; [21]
  Nasal lavage RNA, Mean Diff. Vehicle - GS-621763: 4.178
  Nasal lavage RNA, group mean (Mean 2; Transform of Brazil - Nasal Lavage RNA): 2.173
[4]; [22]
  Nasal lavage RNA, Mean Diff. Vehicle - GS-621763: 3.536
  Nasal lavage RNA, group mean (Mean 2; Transform of Brazil - Nasal Lavage RNA): 2.653
[4]; [23]
  Nasal lavage RNA, column mean of GS-621763 over all times: 1.903
  Nasal lavage RNA, difference between column means (Vehicle - GS-621763): 2.293
[4]; in vivo, 10 mg/kg
  Infectious virus titer in nasal lavage (Fig 4B): 5 pfu and 10 pfu
  SARS-CoV-2 RNA copies in lungs (Fig 4G): not detected
[4]; in vivo, po, 10 mg/kg
  lowering of viral RNA copies in nasal lavages and turbinates: over three orders of magnitude
  shed virus burden and tissue titers: undetectable levels
[5]; BHK-21, 0.046 µM, 0.046 µM
  % cell viability: 79%
[5]; BHK-21, 1.235 µM, 1.235 µM
  % cell viability: 92%
[5]; BHK-21, 3.704 µM, 3.704 µM
  % cell viability: 96% and 93%
[5]; BHK-21, 33.333 µM, 33.333 µM
  % cell viability: 95%
[5]; BHK-21, 100 µM, 100 µM
  % cell viability: 84%
[6]
  CC50 at 72 h: 39.7 µM
[7]; Day 0, 3 mg/kg
  Transform of Nasal lavage titer, Mean 2 (treated group): 0.699
  Transform of Nasal lavage titer, Mean Diff. (Vehicle vs. treated): 0
[7]; Day 0, 10 mg/kg
  Transform of Nasal lavage titer, Mean 2 (treated group): 0.699
  Transform of Nasal lavage titer, Mean Diff. (Vehicle vs. treated): 0
[7]; Day 0.5, 3 mg/kg
  Transform of Nasal lavage titer, Mean 2 (treated group): 2.775
  Transform of Nasal lavage titer, Mean Diff. (Vehicle vs. treated): -0.18
[7]; Day 0.5, 10 mg/kg
  Transform of Nasal lavage titer, Mean 2 (treated group): 2.413
  Transform of Nasal lavage titer, Mean Diff. (Vehicle vs. treated): 0.1817
